The target in assay [1] is T1, human α2a-AR (Homo sapiens, UniProt P08913).
T1 construct: expressed in transfected cells
T1 sequence (P08913 1-465): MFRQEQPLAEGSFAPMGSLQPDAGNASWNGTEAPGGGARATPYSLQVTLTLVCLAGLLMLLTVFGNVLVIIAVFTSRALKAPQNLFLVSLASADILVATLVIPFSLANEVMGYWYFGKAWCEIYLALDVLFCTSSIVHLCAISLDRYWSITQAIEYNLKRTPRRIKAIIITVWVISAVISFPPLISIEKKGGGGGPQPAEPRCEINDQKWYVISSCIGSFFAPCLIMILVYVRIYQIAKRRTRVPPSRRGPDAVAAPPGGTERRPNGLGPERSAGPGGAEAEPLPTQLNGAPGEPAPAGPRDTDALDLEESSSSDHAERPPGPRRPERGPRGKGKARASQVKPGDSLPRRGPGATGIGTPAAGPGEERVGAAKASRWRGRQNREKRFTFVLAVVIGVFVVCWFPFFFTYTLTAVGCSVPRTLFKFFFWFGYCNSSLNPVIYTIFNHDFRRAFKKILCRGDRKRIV
The assay is described as follows: [3H]Rauwolscine equilibrium competition binding, human α2a-AR expressed in CHO cells. As to conditions: human α2a-AR in CHO cells.

Assay [2] has as its target T2, human α2b-AR (Homo sapiens, UniProt P18089).
T2 construct: expressed in transfected cells
T2 sequence (P18089 1-450): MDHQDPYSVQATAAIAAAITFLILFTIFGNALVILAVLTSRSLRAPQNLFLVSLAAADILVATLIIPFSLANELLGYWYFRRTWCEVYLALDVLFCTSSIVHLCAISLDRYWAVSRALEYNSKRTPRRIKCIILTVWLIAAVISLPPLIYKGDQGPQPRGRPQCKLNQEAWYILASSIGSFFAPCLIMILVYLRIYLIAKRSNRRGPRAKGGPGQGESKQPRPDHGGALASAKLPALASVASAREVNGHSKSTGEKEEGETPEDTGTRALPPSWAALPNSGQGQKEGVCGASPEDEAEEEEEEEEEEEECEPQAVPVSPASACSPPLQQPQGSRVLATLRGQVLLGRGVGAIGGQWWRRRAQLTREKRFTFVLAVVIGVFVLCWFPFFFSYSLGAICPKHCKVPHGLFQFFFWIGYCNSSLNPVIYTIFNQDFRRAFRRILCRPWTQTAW
Nature of the assay: [3H]Rauwolscine equilibrium competition binding, human α2b-AR expressed in CHO cells.

In assay [3] the target is T3, human α2c-AR (Homo sapiens, UniProt P18825).
T3 construct: expressed in transfected cells
T3 sequence (P18825 1-462): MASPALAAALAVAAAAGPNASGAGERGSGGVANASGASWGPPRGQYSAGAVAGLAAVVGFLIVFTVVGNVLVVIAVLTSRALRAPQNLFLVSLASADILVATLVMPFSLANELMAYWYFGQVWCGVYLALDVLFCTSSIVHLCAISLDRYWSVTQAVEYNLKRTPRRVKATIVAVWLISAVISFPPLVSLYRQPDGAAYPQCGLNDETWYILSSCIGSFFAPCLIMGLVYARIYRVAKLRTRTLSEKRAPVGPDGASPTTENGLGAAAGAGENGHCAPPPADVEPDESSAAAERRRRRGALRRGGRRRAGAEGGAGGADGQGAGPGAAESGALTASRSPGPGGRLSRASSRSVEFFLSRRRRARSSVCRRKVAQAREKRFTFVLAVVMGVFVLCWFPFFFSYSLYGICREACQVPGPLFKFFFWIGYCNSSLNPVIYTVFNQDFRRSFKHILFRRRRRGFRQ
The assay is described as follows: [3H]Rauwolscine equilibrium competition binding, human α2c-AR expressed in CHO cells.

For assay [4], the target named is T4, human α1a-AR (Homo sapiens, UniProt P35348).
T4 construct: expressed in transfected cells; host or cells: HEK cells
T4 sequence (P35348 1-466): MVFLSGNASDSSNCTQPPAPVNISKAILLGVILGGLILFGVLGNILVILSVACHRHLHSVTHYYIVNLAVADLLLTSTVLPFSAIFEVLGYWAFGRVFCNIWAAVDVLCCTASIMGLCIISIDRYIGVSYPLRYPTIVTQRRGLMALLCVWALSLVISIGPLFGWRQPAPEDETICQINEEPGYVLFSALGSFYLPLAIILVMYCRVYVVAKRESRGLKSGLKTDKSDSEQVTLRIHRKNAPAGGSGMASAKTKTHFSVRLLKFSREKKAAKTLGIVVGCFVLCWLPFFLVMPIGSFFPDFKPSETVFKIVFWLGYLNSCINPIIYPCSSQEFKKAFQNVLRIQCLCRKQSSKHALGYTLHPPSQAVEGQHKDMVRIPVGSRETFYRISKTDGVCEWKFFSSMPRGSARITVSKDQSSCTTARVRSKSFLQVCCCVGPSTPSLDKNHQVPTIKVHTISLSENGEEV
Nature of the assay: [3H]prazosin equilibrium competition binding, human α1a-AR expressed in HEK cells.

Assay [5] addresses T5, human α1b-AR (Homo sapiens, UniProt P35368).
T5 construct: expressed in transfected cells; host or cells: HEK cells
T5 sequence (P35368 1-520): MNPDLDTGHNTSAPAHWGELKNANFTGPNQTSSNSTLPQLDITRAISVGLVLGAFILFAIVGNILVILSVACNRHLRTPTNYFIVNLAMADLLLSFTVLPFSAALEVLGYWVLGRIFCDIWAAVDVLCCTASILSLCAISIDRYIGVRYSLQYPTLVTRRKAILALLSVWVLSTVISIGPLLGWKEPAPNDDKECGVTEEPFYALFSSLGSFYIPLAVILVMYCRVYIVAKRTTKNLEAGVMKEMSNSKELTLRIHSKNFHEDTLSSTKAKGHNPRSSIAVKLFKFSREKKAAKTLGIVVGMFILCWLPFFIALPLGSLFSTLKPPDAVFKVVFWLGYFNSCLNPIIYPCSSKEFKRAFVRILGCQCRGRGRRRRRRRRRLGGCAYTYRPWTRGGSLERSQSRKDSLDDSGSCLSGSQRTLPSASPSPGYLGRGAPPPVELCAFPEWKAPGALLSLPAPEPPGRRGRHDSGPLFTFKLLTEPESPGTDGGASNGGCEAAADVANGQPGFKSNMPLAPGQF
Nature of the assay: [3H]prazosin equilibrium competition binding, human α1b-AR expressed in HEK cells.

The target of assay [6] is T6, human α1d-AR (Homo sapiens, UniProt P25100).
T6 construct: expressed in transfected cells; host or cells: HEK cells
T6 sequence (P25100 1-572): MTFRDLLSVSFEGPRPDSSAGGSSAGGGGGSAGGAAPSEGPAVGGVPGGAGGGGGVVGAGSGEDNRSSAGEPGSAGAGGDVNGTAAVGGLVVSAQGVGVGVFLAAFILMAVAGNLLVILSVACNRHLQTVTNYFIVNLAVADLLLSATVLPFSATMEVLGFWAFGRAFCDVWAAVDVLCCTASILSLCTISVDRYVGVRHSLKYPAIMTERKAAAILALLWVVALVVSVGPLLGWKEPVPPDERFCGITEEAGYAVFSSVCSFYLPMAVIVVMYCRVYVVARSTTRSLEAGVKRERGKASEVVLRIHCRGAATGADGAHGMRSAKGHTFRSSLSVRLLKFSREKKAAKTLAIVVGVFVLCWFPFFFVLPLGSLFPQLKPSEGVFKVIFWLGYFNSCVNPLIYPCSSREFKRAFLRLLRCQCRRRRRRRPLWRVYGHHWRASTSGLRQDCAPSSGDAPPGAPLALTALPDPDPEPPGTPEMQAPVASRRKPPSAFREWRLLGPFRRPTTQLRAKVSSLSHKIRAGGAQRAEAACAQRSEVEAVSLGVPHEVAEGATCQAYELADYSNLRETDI
The assay is described as follows: [3H]prazosin equilibrium competition binding, human α1d-AR expressed in HEK cells.

The target of assay [7] is T1, human α2a-AR. Nature of the assay: Reversal of medetomidine mediated inhibition of forskolin-induced cAMP (6 CRE-LUC reporter), CHO cells expressing α2a-AR. In kind it is cell-based. As to conditions: reversal of medetomidine (10 nM) effect on forskolin (5 μM) cAMP response; mean ± SEM of n=3-4; read-out: Effective Concentration-50 (nM ± SEM) α2a-AR. The procedure:
(§1) The changes in cAMP levels were assessed by luciferase activities using a 6 CRE-LUC reporter gene bioassay.

Assay [8] has as its target T3, human α2c-AR. The assay is described as follows: Reversal of medetomidine mediated inhibition of forskolin-induced cAMP (6 CRE-LUC reporter), CHO cells expressing α2c-AR. The class given is cell-based. The procedure: as §1

Structures are written as SMILES. Like-named read-outs stand apart in the source and are kept apart here.

`O=C(NCCCNC(=O)[C@@H]1[C@H]2C[C@H]3c4[nH]c5ccccc5c4CCN3C[C@@H]2CC[C@@H]1O)[C@@H]1[C@H]2C[C@H]3c4[nH]c5ccccc5c4CCN3C[C@@H]2CC[C@@H]1O` [Compound 3b]: the Ki in assay [1] (Table 2, mean ± SEM of n = 4-6, read-out: pKi α2a-AR (converted)) was 182 nM; in assay [1] ([3H]rauwolscine 2.54 nM, mean ± SEM of four to nine experiments, read-out: Ki = SEM (nM) α2a-AR), 52 ± 3.2 nM; in assay [2] (Table 2, mean ± SEM of n = 4-6, read-out: pKi α2b-AR (converted)), 2040 nM; in assay [2] ([3H]rauwolscine 2.54 nM, mean ± SEM of four to nine experiments, read-out: Ki = SEM (nM) α2b-AR), 990 ± 85.2 nM; in assay [3] it was 5.75 nM; in assay [4], 17000 nM. Further, the Ki is 5750 nM in assay [5] and 7760 nM in assay [6]. Moreover, the “pKi α2c-AR” value in assay [3] (Table 3, CHO cells, [3H]rauwolscine, mean ± SEM of n = 4-6) amounted to 8.24 ± 0.07. For the same compound, in assay [3] (from Table 3), the “binding affinity for α2c-AR greater than on the α1-AR subtypes” value is recorded as not below 1000 fold. The EC50 in assay [7] was 660 ± 210 nM; in assay [8], 15.8 ± 5.2 nM. For the same compound, the “more potent at inhibiting the action of medetomidine on α2c-AR versus α2a-AR” value in assay [8] (from Table 4) is recorded as 42 fold.

Values taken from patent publication US6638943B2 (The University of Tennessee Research Foundation, priority 2001, dated 2003).
